Data taken from patent US12068150B2, “Substrate cleaning solution, and using the same, method for manufacturing cleaned substrate and method for manufacturing device” (Merck Patent GmbH, priority 2018, dated 2024).

Assay: Evaluation of Solubility in 5.0 mass % ammonia water
Format: physicochemical
Conditions: 100 ppm and 1,000 ppm, shaken 3 hours, checked visually; for (B) Solubitity: component (B)
Procedure: The solubility can be evaluated by known methods. For example, it can be determined under the condition of 20-35° C. (more preferably 25±2° C.) by providing a flask charged with 100 ppm of the above (A) or the below-mentioned (B) in 5.0 mass % ammonia water, covering the flask with a cap, shaking for 3 hours in a shaker, and confirming whether (A) or (B) is dissolved or not. The shaking may be stirring. Dissolution can be also judged visually. […] In the present specification, soluble includes slightly soluble in a broad sense. In the present specification, the solubility becomes low in the order of insoluble, hardly soluble and soluble. In the present specification, slightly soluble is less soluble than soluble and more soluble than hardly soluble in a narrow sense.
4 mg of each component (for example, 2,2-bis (4-hydroxyphenyl) propane) to be used thereafter is put in a 50 mL sample bottle, and 5.0 mass % ammonia water is added to make the total amount to 40 g. Covering this with a cap, it is shaken and stirred for 3 hours. This gives a liquid having a component concentration of 100 ppm.
The same procedure as described above is carried out except that the amount of each component added is changed to 40 mg, and a liquid having a component concentration of 1,000 ppm is obtained. Their solubility is checked visually. Evaluation criteria are as shown below.
X: When the dissolution residue is confirmed at 100 ppm and 1,000 ppm, it is judged to be insoluble or hardly soluble.
Y: When the dissolution residue is not confirmed at 100 ppm but confirmed at 1,000 ppm, it is judged to be slightly soluble.
Z: When the dissolution residue is confirmed at neither 100 ppm nor 1,000 ppm, it is judged to be soluble.

Oc1ccc(C(c2ccccc2)(c2ccccc2)c2ccc(O)cc2)cc1 [A11, 4,4′-dihydroxytetraphenylmethane]
(A) Solubitity (component (A)): X (When the dissolution residue is confirmed at 100 ppm and 1,000 ppm, it is judged to be insoluble or hardly soluble.)

CC(C)(c1ccc(O)cc1)c1ccc(O)cc1 [B1, 2,2-bis(4-hydroxyphenyl)propane]
(B) Solubitity: Y (When the dissolution residue is not confirmed at 100 ppm but confirmed at 1,000 ppm, it is judged to be slightly soluble.)

Oc1ccc(CC(c2ccc(O)cc2)(c2ccc(O)cc2)c2ccc(O)cc2)cc1 [B2, 1,2,2,2-tetrakis(4-hydroxyphenyl)ethane]
(B) Solubitity: Z (When the dissolution residue is confirmed at neither 100 ppm nor 1,000 ppm, it is judged to be soluble.)

OC1CCCC(O)C1 (centres unmarked) [B3, 1,3-cyclohexanediol]
(B) Solubitity: Z (When the dissolution residue is confirmed at neither 100 ppm nor 1,000 ppm, it is judged to be soluble.)

Cc1ccc(O)c(Cc2cc(C)cc(Cc3cc(C)ccc3O)c2O)c1 [B4, 2,6-bis[(2-hydroxy-5-methylphenyl)methyl]-4-methylphenol]
(B) Solubitity: Y (When the dissolution residue is not confirmed at 100 ppm but confirmed at 1,000 ppm, it is judged to be slightly soluble.)

Cc1ccc(O)c(Cc2cc(C)ccc2O)c1 [B5, 2,2′-methylenebis(4-methylphenol)]
(B) Solubitity: Z (When the dissolution residue is confirmed at neither 100 ppm nor 1,000 ppm, it is judged to be soluble.)

Oc1ccc(-c2ccc(O)cc2)cc1 [B6, 4,4′-dihydroxybiphenyl]
(B) Solubitity: Y (When the dissolution residue is not confirmed at 100 ppm but confirmed at 1,000 ppm, it is judged to be slightly soluble.)

Oc1ccc2cc(O)ccc2c1 [B7, 2,6-naphthalenediol]
(B) Solubitity: Y (When the dissolution residue is not confirmed at 100 ppm but confirmed at 1,000 ppm, it is judged to be slightly soluble.)

CC(C)(O)C#CC(C)(C)O [B8, 2,5-dimethyl-3-hexyne-2,5-diol]
(B) Solubitity: Z (When the dissolution residue is confirmed at neither 100 ppm nor 1,000 ppm, it is judged to be soluble.)

CCC(C)(O)C#CC(C)(O)CC (centres unmarked) [B9, 3,6-dimethyl-4-octin-3,6-diol]
(B) Solubitity: Z (When the dissolution residue is confirmed at neither 100 ppm nor 1,000 ppm, it is judged to be soluble.)

CC(C)(C)c1cc(O)c(C(C)(C)C)cc1O [B10, 2,5-di-tert-butylhydroquinone]
(B) Solubitity: Z (When the dissolution residue is confirmed at neither 100 ppm nor 1,000 ppm, it is judged to be soluble.)
